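How tested: cells in 96-well plates exposed to compound for 48 hours at five concentrations. The concentration for 50% growth inhibition is given as GI50. TGI marks complete inhibition of growth.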
Key:
Test in all cases: NCI tumour cell line growth inhibition, 48 h
786-0 renal = test system: 786-0 renal
A498 renal = test system: A498 renal
A549 NSCLC = test system: A549 NSCLC
ACHN renal = test system: ACHN renal
BT-549 breast = test system: BT-549 breast
CCRF-CEM leukemia = test system: CCRF-CEM leukemia
DU-145 prostate = test system: DU-145 prostate
EKVX NSCLC = test system: EKVX NSCLC
HCC-2998 colon = test system: HCC-2998 colon
HCT-116 colon = test system: HCT-116 colon
HCT-15 colon = test system: HCT-15 colon
HL-60(TB) leukemia = test system: HL-60(TB) leukemia
HOP-62 NSCLC = test system: HOP-62 NSCLC
HOP-92 NSCLC = test system: HOP-92 NSCLC
HS 578T breast = test system: HS 578T breast
HT29 colon = test system: HT29 colon
IGROV1 ovarian = test system: IGROV1 ovarian
KM12 colon = test system: KM12 colon
LOX IMVI melanoma = test system: LOX IMVI melanoma
M14 melanoma = test system: M14 melanoma
MALME-3M melanoma = test system: MALME-3M melanoma
MCF7 breast = test system: MCF7 breast
MDA-MB-231 breast = test system: MDA-MB-231 breast
MDA-MB-435 = test system: MDA-MB-435
MOLT-4 leukemia = test system: MOLT-4 leukemia
NCI-H226 lung = test system: NCI-H226 lung
NCI-H23 lung = test system: NCI-H23 lung
NCI-H460 lung = test system: NCI-H460 lung
NCI-H522 lung = test system: NCI-H522 lung
NCI/ADR-RES ovarian = test system: NCI/ADR-RES ovarian
OVCAR-3 ovarian = test system: OVCAR-3 ovarian
OVCAR-4 ovarian = test system: OVCAR-4 ovarian
OVCAR-5 ovarian = test system: OVCAR-5 ovarian
OVCAR-8 ovarian = test system: OVCAR-8 ovarian
PC-3 prostate = test system: PC-3 prostate
RXF 393 renal = test system: RXF 393 renal
SF-268 CNS = test system: SF-268 CNS
SF-295 CNS = test system: SF-295 CNS
SF-539 CNS = test system: SF-539 CNS
SK-MEL-2 melanoma = test system: SK-MEL-2 melanoma
SK-MEL-28 melanoma = test system: SK-MEL-28 melanoma
SK-MEL-5 melanoma = test system: SK-MEL-5 melanoma
SK-OV-3 ovarian = test system: SK-OV-3 ovarian
SN12C renal = test system: SN12C renal
SNB-19 CNS = test system: SNB-19 CNS
SNB-75 CNS = test system: SNB-75 CNS
SR leukemia = test system: SR leukemia
SW-620 colon = test system: SW-620 colon
T-47D breast = test system: T-47D breast
TK-10 renal = test system: TK-10 renal
U251 CNS = test system: U251 CNS
UACC-257 melanoma = test system: UACC-257 melanoma
UACC-62 melanoma = test system: UACC-62 melanoma
UO-31 renal = test system: UO-31 renal
CAKI-1 renal = test system: CAKI-1 renal
COLO 205 colon = test system: COLO 205 colon
K-562 leukemia = test system: K-562 leukemia
RPMI-8226 leukemia = test system: RPMI-8226 leukemia

## O=C1c2ccccc2C(=O)c2c1ccc(C(Br)Br)c2Cl
786-0 renal
  GI50: 1.71 µM
  TGI: 3.25 µM
A498 renal
  GI50: 17 µM
  TGI: 31.9 µM
A549 NSCLC
  GI50: 16.7 µM
  TGI: 32.3 µM
ACHN renal
  GI50: 1.57 µM
  TGI: 3.02 µM
BT-549 breast
  GI50: 1.79 µM
  TGI: 4.61 µM
CCRF-CEM leukemia
  GI50: 2.1 µM
  TGI: 8.21 µM
DU-145 prostate
  GI50: 2.07 µM
  TGI: 4.7 µM
EKVX NSCLC
  GI50: 4.42 µM
  TGI: 17.8 µM
HCC-2998 colon
  GI50: 3.42 µM
  TGI: 12.1 µM
HCT-116 colon
  GI50: 1.58 µM
  TGI: 3.02 µM
HCT-15 colon
  GI50: 1.69 µM
  TGI: 3.4 µM
HL-60(TB) leukemia
  GI50: 3.66 µM
  TGI: 11.2 µM
HOP-62 NSCLC
  GI50: 2.1 µM
  TGI: 4.67 µM
HOP-92 NSCLC
  GI50: 1.67 µM
  TGI: 3.35 µM
HS 578T breast
  GI50: 2.81 µM
  TGI: 9.11 µM
HT29 colon
  GI50: 1.87 µM
  TGI: 3.54 µM
IGROV1 ovarian
  GI50: 1.7 µM
  TGI: 3.89 µM
KM12 colon
  GI50: 2.04 µM
  TGI: 5.28 µM
LOX IMVI melanoma
  GI50: 1.59 µM
  TGI: 3.08 µM
M14 melanoma
  GI50: 2.67 µM
  TGI: 9.06 µM
MALME-3M melanoma
  GI50: 1.69 µM
  TGI: 3.38 µM
MCF7 breast
  GI50: 1.69 µM
  TGI: 3.86 µM
MDA-MB-231 breast
  GI50: 1.87 µM
  TGI: 3.7 µM
MDA-MB-435
  GI50: 3.03 µM
  TGI: 10.9 µM
MOLT-4 leukemia
  GI50: 2.81 µM
  TGI: 9.32 µM
NCI-H226 lung
  GI50: 4.49 µM
  TGI: 24.4 µM
NCI-H23 lung
  GI50: 1.91 µM
  TGI: 4.92 µM
NCI-H460 lung
  GI50: 2.01 µM
  TGI: 3.85 µM
NCI-H522 lung
  GI50: 1.6 µM
  TGI: 3.3 µM
NCI/ADR-RES ovarian
  GI50: 3.1 µM
  TGI: 14.9 µM
OVCAR-3 ovarian
  GI50: 1.66 µM
  TGI: 3.12 µM
OVCAR-4 ovarian
  GI50: 1.78 µM
  TGI: 4.3 µM
OVCAR-5 ovarian
  GI50: 11.1 µM
  TGI: 23.9 µM
OVCAR-8 ovarian
  GI50: 3.16 µM
  TGI: 8.87 µM
PC-3 prostate
  GI50: 2.38 µM
  TGI: 6.28 µM
RXF 393 renal
  GI50: 2 µM
  TGI: 4.79 µM
SF-268 CNS
  GI50: 1.68 µM
  TGI: 3.45 µM
SF-295 CNS
  GI50: 11.7 µM
  TGI: 23.9 µM
SF-539 CNS
  GI50: 1.99 µM
  TGI: 4.61 µM
SK-MEL-2 melanoma
  GI50: 3.27 µM
  TGI: 12.4 µM
SK-MEL-28 melanoma
  GI50: 11.9 µM
  TGI: 24.4 µM
SK-MEL-5 melanoma
  GI50: 5.84 µM
  TGI: 18.1 µM
SK-OV-3 ovarian
  GI50: 15.1 µM
  TGI: 30 µM
SN12C renal
  GI50: 1.92 µM
  TGI: 3.82 µM
SNB-19 CNS
  GI50: 3.55 µM
  TGI: 13.5 µM
SNB-75 CNS
  GI50: 13.7 µM
  TGI: 26.9 µM
SR leukemia
  GI50: 1.83 µM
  TGI: 4.33 µM
SW-620 colon
  GI50: 1.78 µM
  TGI: 3.4 µM
T-47D breast
  GI50: 1.76 µM
  TGI: 5.79 µM
TK-10 renal
  GI50: 3.91 µM
  TGI: 12.3 µM
U251 CNS
  GI50: 1.75 µM
  TGI: 3.24 µM
UACC-257 melanoma
  GI50: 12.1 µM
  TGI: 24.8 µM
UACC-62 melanoma
  GI50: 4.56 µM
  TGI: 16.6 µM
UO-31 renal
  GI50: 1.73 µM
  TGI: 3.78 µM

## COc1ccc2c(-c3ccc(OCCN(C)C)cc3)c(Oc3ccccc3)c(=O)oc2c1
786-0 renal
  TGI: 8.68 µM
A498 renal
  TGI: 26.8 µM
A549 NSCLC
  TGI: 10.4 µM
ACHN renal
  TGI: 22 µM
BT-549 breast
  TGI: 24.4 µM
CAKI-1 renal
  TGI: 25.1 µM
CCRF-CEM leukemia
  TGI: 10.1 µM
COLO 205 colon
  TGI: 9.59 µM
DU-145 prostate
  TGI: 27.6 µM
EKVX NSCLC
  TGI: 23.5 µM
HCC-2998 colon
  TGI: 10.3 µM
HCT-116 colon
  TGI: 8.79 µM
HCT-15 colon
  TGI: 14.6 µM
HOP-62 NSCLC
  TGI: 27.3 µM
HOP-92 NSCLC
  TGI: 25.8 µM
HS 578T breast
  TGI: 21.5 µM
HT29 colon
  TGI: 22.4 µM
IGROV1 ovarian
  TGI: 19.1 µM
K-562 leukemia
  TGI: 12.4 µM
KM12 colon
  TGI: > 39.4 µM
LOX IMVI melanoma
  TGI: 26.6 µM
M14 melanoma
  TGI: 3.08 µM
MALME-3M melanoma
  TGI: 11.6 µM
MCF7 breast
  TGI: 15.3 µM
MDA-MB-231 breast
  TGI: 10.2 µM
MDA-MB-435
  TGI: 7.12 µM
MOLT-4 leukemia
  TGI: 11.8 µM
NCI-H226 lung
  TGI: 40 µM
NCI-H23 lung
  TGI: 28.8 µM
NCI-H460 lung
  TGI: 22.2 µM
NCI-H522 lung
  TGI: 11.3 µM
NCI/ADR-RES ovarian
  TGI: 20.4 µM
OVCAR-3 ovarian
  TGI: 21.2 µM
OVCAR-4 ovarian
  TGI: 40.7 µM
OVCAR-5 ovarian
  TGI: 28.2 µM
OVCAR-8 ovarian
  TGI: 26.2 µM
PC-3 prostate
  TGI: 18.9 µM
RPMI-8226 leukemia
  TGI: 15.5 µM
RXF 393 renal
  TGI: 20.5 µM
SF-268 CNS
  TGI: 18.9 µM
SF-295 CNS
  TGI: 8.91 µM
SF-539 CNS
  TGI: 16.7 µM
SK-MEL-2 melanoma
  TGI: 13.9 µM
SK-MEL-28 melanoma
  TGI: 5.53 µM
SK-MEL-5 melanoma
  TGI: 5.89 µM
SK-OV-3 ovarian
  TGI: 18.1 µM
SN12C renal
  TGI: 18.7 µM
SNB-19 CNS
  TGI: 17.2 µM
SNB-75 CNS
  TGI: 21.6 µM
SR leukemia
  TGI: 5.17 µM
SW-620 colon
  TGI: 16.7 µM
T-47D breast
  TGI: > 59.9 µM
TK-10 renal
  TGI: 23 µM
U251 CNS
  TGI: 8.9 µM
UACC-257 melanoma
  TGI: 4.52 µM
UACC-62 melanoma
  TGI: 9.82 µM
UO-31 renal
  TGI: 13.9 µM

— PubChem BioAssay (NCI)
